Measurements reported in ChEMBL document CHEMBL1154782, “Discovery of Trp-His and His-Arg analogues as new structural classes of short antimicrobial peptides” (J Med Chem, 2009).
In brackets after ≈: the same amount, converted by molar mass. Where a SMILES comes first, the peptide text is derived from it. The star is where a group is joined. Boc = CC(C)(C)OC(=O)*; NHBn = c1ccc(CN*)cc1

Assays:
[1] = test system: L929; test: Cytotoxicity against mouse L929 cells up to 200 ug/mL after 5 days by MTT assay; assay type: cell-based; conditions: l929, 120 h
[2] = test system: Klebsiella pneumoniae; test: Antibacterial activity against Klebsiella pneumoniae ATCC 700603 after 15 to 18 hrs under aerobic condition by modified broth microdilution method; assay type: functional
[3] = test system: Staphylococcus epidermidis; test: Antibacterial activity against methicillin-resistant Staphylococcus epidermidis DSM 50160384 after 15 to 18 hrs under aerobic condition by modified broth microdilution method; assay type: functional
[4] = test system: Staphylococcus epidermidis; test: Antibacterial activity against methicillin-resistant Staphylococcus epidermidis DSM 50160384; assay type: functional, organism-based
[5] = test system: Escherichia coli; test: Antibacterial activity against Escherichia coli ATCC 35218 after 15 to 18 hrs under aerobic condition by modified broth microdilution method; assay type: functional
[6] = test system: Pseudomonas aeruginosa; test: Antibacterial activity against Pseudomonas aeruginosa ATCC 9027 after 15 to 18 hrs under aerobic condition by modified broth microdilution method; assay type: functional
[7] = test system: Staphylococcus aureus; test: Antibacterial activity against methicillin-resistant Staphylococcus aureus DSM 50128509 after 15 to 18 hrs under aerobic condition by modified broth microdilution method; assay type: functional
[8] = test system: Candida albicans; test: Antifungal activity against Candida albicans ATCC 10231 after 15 to 18 hrs under aerobic condition by modified broth microdilution method; assay type: functional
[9] = test system: Staphylococcus aureus; test: Antibacterial activity against methicillin-resistant Staphylococcus aureus DSM 50128509; assay type: functional, organism-based
[10] = test system: Candida albicans; test: Antifungal activity against Candida albicans ATCC 10231; assay type: functional, organism-based
[11] = test system: Escherichia coli; test: Antibacterial activity against Escherichia coli ATCC 35218; assay type: functional, organism-based

| Compound | Activity [1] | MIC [2] [µg/mL] | MIC [3] [µg/mL] | IC50 [4] [µg/mL] | MIC [5] [µg/mL] | MIC [6] [µg/mL] | MIC [7] [µg/mL] | MIC [8] [µg/mL] | IC50 [9] [µg/mL] | IC50 [10] [µg/mL] | IC50 [11] [µg/mL] |
| --- | --- | --- | --- | --- | --- | --- | --- | --- | --- | --- | --- |
| CC(C)c1nc(C[C@H](NC(=O)[C@@H](N)Cc2c[nH]c3ccccc23)C(=O)NCc2ccccc2)c[nH]1 | Non-toxic | > 200 | 100 (≈ 212 µM) | 12.8 (≈ 27.1 µM) | > 200 | > 200 | > 200 | > 200 |  |  |  |
| CC(C)(C)OC(=O)N[C@@H](Cc1c[nH]cn1)C(=O)N[C@@H](CCCNC(=N)N)C(=O)NCc1ccccc1 (Boc-His-Arg-NHBn) | Non-toxic | > 200 | 100 (≈ 200 µM) | 8.79 (≈ 17.6 µM) | > 200 | > 200 | > 200 | > 200 |  |  |  |
| CC(C)(C)OC(=O)N[C@@H](Cc1c[nH]c2ccccc12)C(=O)N[C@@H](Cc1c[nH]c(C2CCC2)n1)C(=O)NCc1ccccc1 | Non-toxic | > 200 | > 200 |  | > 200 | > 200 | 200 (≈ 342 µM) | 200 (≈ 342 µM) | 22.4 (≈ 38.2 µM) | 33.2 (≈ 56.7 µM) |  |
| COC(=O)[C@H](Cc1c[nH]c(C2CCC2)n1)NC(=O)[C@H](Cc1c[nH]c2ccccc12)NC(=O)OC(C)(C)C | Non-toxic | > 200 | 100 (≈ 196 µM) | 5.44 (≈ 10.7 µM) | 200 (≈ 392 µM) | > 200 | 100 (≈ 196 µM) | > 200 | 2.95 (≈ 5.79 µM) |  | 24.6 (≈ 48.3 µM) |
| CC(C)(C)OC(=O)N[C@@H](Cc1c[nH]c(C2CCCCC2)n1)C(=O)N[C@@H](CCCNC(=N)N)C(=O)NCc1ccccc1 | Non-toxic | > 200 | 100 (≈ 172 µM) | 18.4 (≈ 31.6 µM) | 200 (≈ 343 µM) | > 200 | 100 (≈ 172 µM) | > 200 | 12.1 (≈ 20.7 µM) |  |  |
| CC(C)(C)OC(=O)N[C@@H](Cc1c[nH]c2ccccc12)C(=O)N[C@@H](Cc1c[nH]c(C23CC4CC(CC(C4)C2)C3)n1)C(=O)NCc1ccccc1 | Non-toxic | 200 (≈ 301 µM) | 200 (≈ 301 µM) | 29.1 (≈ 43.7 µM) | > 200 | > 200 | 100 (≈ 150 µM) | 200 (≈ 301 µM) | 7.59 (≈ 11.4 µM) | 28.3 (≈ 42.6 µM) |  |
| COC(=O)[C@H](CCCNC(=N)N)NC(=O)[C@@H](N)Cc1c[nH]cn1 (H-His-Arg-OMe) | Non-toxic | > 200 | 50 (≈ 154 µM) | 2.72 (≈ 8.36 µM) | > 200 | > 200 | 100 (≈ 307 µM) | > 200 | 4.88 (≈ 15 µM) |  |  |
| CC(C)c1nc(C[C@H](NC(=O)[C@H](Cc2c[nH]c3ccccc23)NC(=O)OC(C)(C)C)C(=O)NCc2ccccc2)c[nH]1 | Non-toxic | > 200 | > 200 |  | > 200 | > 200 | 200 (≈ 349 µM) | > 200 | 10.3 (≈ 17.9 µM) |  |  |
| COC(=O)[C@H](CCCNC(=N)N)NC(=O)[C@H](Cc1c[nH]c(C(C)C)n1)NC(=O)OC(C)(C)C | Non-toxic | > 200 | 200 (≈ 428 µM) | 13.1 (≈ 28 µM) | > 200 | > 200 | 200 (≈ 428 µM) | 200 (≈ 428 µM) | 12.4 (≈ 26.6 µM) | 20.9 (≈ 44.6 µM) |  |
| CN[C@H](CC(C)C)C(=O)N[C@H]1C(=O)N[C@@H](CC(N)=O)C(=O)N[C@H]2C(=O)N[C@H]3C(=O)N[C@H](C(=O)N[C@H](C(=O)O)c4cc(O)cc(O)c4-c4cc3ccc4O)[C@H](O)c3ccc(c(Cl)c3)Oc3cc2cc(c3O[C@@H]2O[C@H](CO)[C@@H](O)[C@H](O)[C@H]2O[C@H]2C[C@](C)(N)[C@H](O)[C@H](C)O2)Oc2ccc(cc2Cl)[C@H]1O [VANCOMYCIN] |  |  |  | 0.14 (≈ 0.0966 µM) |  |  |  |  | 0.14 (≈ 0.0966 µM) |  |  |
| CC(C)(C)OC(=O)N[C@@H](Cc1c[nH]c2ccccc12)C(=O)N[C@@H](Cc1c[nH]c(C2CCCCC2)n1)C(=O)NCc1ccccc1 | Non-toxic | > 200 | 200 (≈ 326 µM) | 23.8 (≈ 38.9 µM) | > 200 | > 200 | 200 (≈ 326 µM) | > 200 | 31.7 (≈ 51.7 µM) |  |  |
| N=C(N)NCCC[C@H](NC(=O)[C@@H](N)Cc1c[nH]c(C2CCC2)n1)C(=O)NCc1ccccc1 | Non-toxic | > 200 | 50 (≈ 110 µM) | 3.94 (≈ 8.67 µM) | > 200 | > 200 | 50 (≈ 110 µM) | 100 (≈ 220 µM) | 6.99 (≈ 15.4 µM) | 9.95 (≈ 21.9 µM) |  |
| COC(=O)[C@H](Cc1c[nH]c(C(C)C)n1)NC(=O)[C@H](Cc1c[nH]c2ccccc12)NC(=O)OC(C)(C)C | Non-toxic | > 200 | > 200 |  | > 200 | > 200 | > 200 | > 200 |  |  |  |
| COC(=O)[C@H](CCCNC(=N)N)NC(=O)[C@@H](N)Cc1c[nH]c(C(C)C)n1 | Non-toxic | > 200 | 50 (≈ 136 µM) | 5.42 (≈ 14.8 µM) | 200 (≈ 544 µM) | > 200 | 50 (≈ 136 µM) | > 200 | 4.82 (≈ 13.1 µM) |  | 9.98 (≈ 27.2 µM) |
| COC(=O)[C@H](CCCNC(=N)N)NC(=O)[C@@H](N)Cc1c[nH]c(C2CCCCC2)n1 | Non-toxic | > 200 | 10 (≈ 24.5 µM) | 1.92 (≈ 4.71 µM) | > 200 | > 200 | 50 (≈ 123 µM) | 200 (≈ 491 µM) | 20.9 (≈ 51.4 µM) | 27.5 (≈ 67.6 µM) |  |
| N[C@@H](Cc1c[nH]c2ccccc12)C(=O)N[C@@H](Cc1c[nH]cn1)C(=O)NCc1ccccc1 (H-Trp-His-NHBn) | Non-toxic | > 200 | 200 (≈ 465 µM) | 29 (≈ 67.3 µM) | > 200 | > 200 | 200 (≈ 465 µM) | 200 (≈ 465 µM) | 12.3 (≈ 28.5 µM) | 15.2 (≈ 35.2 µM) |  |
| CC(C)(C)c1nc(C[C@H](NC(=O)[C@@H](N)Cc2c[nH]c3ccccc23)C(=O)NCc2ccccc2)c[nH]1 | Non-toxic | > 200 | 100 (≈ 205 µM) | 9.24 (≈ 19 µM) | > 200 | > 200 | > 200 | > 200 |  |  |  |
| CN[C@@H]1[C@H](O[C@H]2[C@H](O[C@H]3[C@H](O)[C@@H](O)[C@H](N=C(N)N)[C@@H](O)[C@@H]3N=C(N)N)O[C@@H](C)[C@]2(O)C=O)O[C@@H](CO)[C@H](O)[C@H]1O [STREPTOMYCIN] |  |  |  |  |  |  |  |  |  |  | 0.73 (≈ 1.26 µM) |
| CC(C)(C)OC(=O)N[C@@H](Cc1c[nH]c2ccccc12)C(=O)N[C@@H](Cc1c[nH]c(C(C)(C)C)n1)C(=O)NCc1ccccc1 | Non-toxic | > 200 | > 200 |  | > 200 | > 200 | > 200 | > 200 |  |  |  |
| COC(=O)[C@H](Cc1c[nH]cn1)NC(=O)[C@H](Cc1c[nH]c2ccccc12)NC(=O)OC(C)(C)C (Boc-Trp-His-OMe) | Non-toxic | > 200 | > 200 |  | > 200 | > 200 | 200 (≈ 439 µM) | 200 (≈ 439 µM) | 16.4 (≈ 35.9 µM) | 31.4 (≈ 68.9 µM) |  |
| COC(=O)[C@H](Cc1c[nH]c(C(C)(C)C)n1)NC(=O)[C@@H](N)Cc1c[nH]c2ccccc12 | Non-toxic | > 200 | 100 (≈ 243 µM) | 6.73 (≈ 16.4 µM) | 200 (≈ 486 µM) | > 200 | 10 (≈ 24.3 µM) | > 200 | 4.21 (≈ 10.2 µM) |  | 19 (≈ 46.2 µM) |
| COC(=O)[C@H](Cc1c[nH]c(C(C)(C)C)n1)NC(=O)[C@H](Cc1c[nH]c2ccccc12)NC(=O)OC(C)(C)C | Non-toxic | > 200 | 100 (≈ 195 µM) | 8.12 (≈ 15.9 µM) | 200 (≈ 391 µM) | > 200 | 50 (≈ 97.7 µM) | > 200 | 4.35 (≈ 8.5 µM) |  | 16.3 (≈ 31.8 µM) |
| N=C(N)NCCC[C@H](NC(=O)[C@@H](N)Cc1c[nH]cn1)C(=O)NCc1ccccc1 (H-His-Arg-NHBn) | Non-toxic | > 200 | 100 (≈ 250 µM) | 8.07 (≈ 20.2 µM) | > 200 | > 200 | 100 (≈ 250 µM) | 200 (≈ 499 µM) | 7.04 (≈ 17.6 µM) | 16.6 (≈ 41.5 µM) |  |
| COC(=O)[C@H](CCCNC(=N)N)NC(=O)[C@H](Cc1c[nH]c(C(C)(C)C)n1)NC(=O)OC(C)(C)C | Non-toxic | > 200 | 200 (≈ 415 µM) | 20.1 (≈ 41.8 µM) | > 200 | > 200 | 100 (≈ 208 µM) | > 200 | 4.15 (≈ 8.62 µM) |  |  |
| C[C@@H]1[C@H](O)[C@@H](C)/C=C/C=C/C=C/C=C/C=C/C=C/C=C/[C@H](O[C@@H]2O[C@H](C)[C@@H](O)[C@H](N)[C@@H]2O)C[C@@H]2O[C@](O)(C[C@@H](O)C[C@@H](O)[C@H](O)CC[C@@H](O)C[C@@H](O)CC(=O)O[C@H]1C)C[C@H](O)[C@H]2C(=O)O [AMPHOTERICIN B] |  |  |  |  |  |  |  |  |  | 0.34 (≈ 0.368 µM) |  |
| COC(=O)[C@H](CCCNC(=N)N)NC(=O)[C@H](Cc1c[nH]cn1)NC(=O)OC(C)(C)C (Boc-His-Arg-OMe) | Non-toxic | > 200 | 100 (≈ 235 µM) | 5.07 (≈ 11.9 µM) | > 200 | > 200 | > 200 | > 200 |  |  |  |
| CC(C)(C)c1nc(C[C@H](N)C(=O)N[C@@H](CCCNC(=N)N)C(=O)NCc2ccccc2)c[nH]1 | Non-toxic | > 200 | 10 (≈ 21.9 µM) | 3.13 (≈ 6.86 µM) | > 200 | > 200 | 20 (≈ 43.8 µM) | > 200 | 4.18 (≈ 9.15 µM) |  |  |
